Measured values: patent US12110286B2, “Benzimidazolone derived inhibitors of BCL6” (Cancer Research Technology Limited, priority 2017, dated 2024)

Each compound was assayed against Trx-6×His-BCL6 (human BCL6 BTB domain covering amino-acid sequence 5-129) (Homo sapiens (Human), UniProt P41182) (assay: HTRF in vitro assay (BCL6 / BCOR-AF633 peptide)). Conditions: further generated data; 1 nM Trx-6×His-BCL6, 300 nM BCOR-AF633 peptide, 0.5 nM anti-6×His-Terbium cryptate.
Type: binding
Protocol: The % inhibition at each concentration was calculated by normalising FRET ratio to the appropriate high (DMSO with all reagents) and low (DMSO without BCL6) controls.

Structure (SMILES) | HTRF pIC50
Cn1c(=O)n(CCS(C)(=O)=O)c2cc(Nc3ccnc(Cl)c3C#N)ccc21 [Example 18b, 2-chloro-4-((1-methyl-3-(2-(methylsulfonyl)ethyl)-2-oxo-2,3-dihydro-1H-benzo[d]imidazol-5-yl)amino)nicotinonitrile] | 5.31
Cc1ccn(-c2ncc(Cl)c(Nc3ccc4c(c3)n(CCC(C)(C)O)c(=O)n4C)n2)n1 [Example 16a, 5-((5-chloro-2-(3-methyl-1H-pyrazol-1-yl)pyrimidin-4-yl)amino)-3-(3-hydroxy-3-methylbutyl)-1-methyl-1,3-dihydro-2H-benzo[d]imidazol-2-one] | 6.38
Cn1c(=O)n(CC2C[C@H](F)CN2CC(F)(F)F)c2cc(Nc3ccnc(Cl)c3C#N)ccc21 (stereo in doubt) [Example 25h, 2-chloro-4-((3-(((2R,4S)-4-fluoro-1-(2,2,2-trifluoroethyl)pyrrolidin-2-yl)methyl)-1-methyl-2-oxo-2,3-dihydro-1H-benzo[d]imidazol-5-yl)amino)nicotinonitrile] | 5.55
Cn1c(=O)n(CCC(C)(C)O)c2cc(Nc3cc(Cl)nc4ccnn34)ccc21 [Example 22h] | 5.47
Cn1c(=O)n(CCC(C)(C)O)c2cc(Nc3nc(N4CCC[C@H]4CO)ncc3Cl)ccc21 [Example 31a, (S)-5-((5-chloro-2-(2-(hydroxymethyl)pyrrolidin-1-yl)pyrimidin-4-yl)amino)-3-(3-hydroxy-3-methylbutyl)-1-methyl-1,3-dihydro-2H-benzo[d]imidazol-2-one] | 6.46
CCOC(=O)c1cnn(-c2ncc(Cl)c(Nc3ccc4c(c3)n(CCC(C)(C)O)c(=O)n4C)n2)c1 [Example 15b] | 5.96
Cn1c(=O)n(C[C@@H]2CCC[C@]2(C)O)c2cc(Nc3ccnc(Cl)c3C#N)ccc21 [Example 22n] | 5.90
Cn1c(=O)n(CCC(C)(C)O)c2cc(Nc3ncnc(Cl)c3C#N)c(F)cc21 [Example 22d] | 5.45

Same assay, conditions: initially generated data; 10 nM Trx-6×His-BCL6, 300 nM BCOR-AF633 peptide, 1 nM anti-6×His-Terbium cryptate

Structure (SMILES) | HTRF pIC50
CNC(=O)c1cc(Nc2ccc3c(c2)n(CC[C@H](C)n2cccn2)c(=O)n3C)c(C#N)c(Cl)n1 [Example 1d, 6-chloro-5-cyano-N-methyl-4-[[1-methyl-2-oxo-3-[(3S)-3-pyrazol-1-ylbutyl]benzimidazol-5-yl]amino]pyridine-2-carboxamide] | 6.04

Same assay, conditions: result in words

Structure (SMILES) | activity in the HTRF assay
Cn1c(=O)n(CCC(C)(C)O)c2cc(Nc3ccnc(Cl)c3C(F)F)ccc21 [5-((2-chloro-3-(difluoromethyl)pyridin-4-yl)amino)-3-(3-hydroxy-3-methylbutyl)-1-methyl-1,3-dihydro-2H-benzo[d]imidazol-2-one] | did not exhibit the desired activity
Cn1c(=O)n(CC2CCOC2(C)C)c2cc(Nc3ccnc(Cl)c3C#N)ccc21 (centres unmarked) [2-chloro-4-((3-((2,2-dimethyltetrahydrofuran-3-yl)methyl)-1-methyl-2-oxo-2,3-dihydro-1H-benzo[d]imidazol-5-yl)amino)nicotinonitrile] | did not exhibit the desired activity
Cn1c(=O)n(CC2CCOCC2)c2cc(Nc3ccnc(Cl)c3C#N)ccc21 [2-chloro-4-((1-methyl-2-oxo-3-((tetrahydro-2H-pyran-4-yl)methyl)-2,3-dihydro-1H-benzo[d]imidazol-5-yl)amino)nicotinonitrile] | did not exhibit the desired activity
Cn1c(=O)n(CC2CCCNC2)c2cc(Nc3ccnc(Cl)c3C#N)ccc21 (centres unmarked) [2-chloro-4-((1-methyl-2-oxo-3-(piperidin-3-ylmethyl)-2,3-dihydro-1H-benzo[d]imidazol-5-yl)amino)nicotinonitrile] | did not exhibit the desired activity
Cn1c(=O)n(C)c2cc(Nc3ncncc3C#N)ccc21 [4-((1,3-dimethyl-2-oxo-2,3-dihydro-1H-benzo[d]imidazol-5-yl)amino)pyrimidine-5-carbonitrile] | did not exhibit the desired activity
